Results on five molecules are retold here after paper PMC9747329 (ACS chemical biology, 2022).

As a reminder, the koff is the first-order rate constant of dissociation. The kon is the rate constant with which the complex forms. The term Emax denotes the size of the effect at its maximum, as opposed to the concentration needed.

Test [1] addresses T1, nLuc-PTHR1 (Homo sapiens, UniProt Q03431).
T1 sequence (Q03431 27-593): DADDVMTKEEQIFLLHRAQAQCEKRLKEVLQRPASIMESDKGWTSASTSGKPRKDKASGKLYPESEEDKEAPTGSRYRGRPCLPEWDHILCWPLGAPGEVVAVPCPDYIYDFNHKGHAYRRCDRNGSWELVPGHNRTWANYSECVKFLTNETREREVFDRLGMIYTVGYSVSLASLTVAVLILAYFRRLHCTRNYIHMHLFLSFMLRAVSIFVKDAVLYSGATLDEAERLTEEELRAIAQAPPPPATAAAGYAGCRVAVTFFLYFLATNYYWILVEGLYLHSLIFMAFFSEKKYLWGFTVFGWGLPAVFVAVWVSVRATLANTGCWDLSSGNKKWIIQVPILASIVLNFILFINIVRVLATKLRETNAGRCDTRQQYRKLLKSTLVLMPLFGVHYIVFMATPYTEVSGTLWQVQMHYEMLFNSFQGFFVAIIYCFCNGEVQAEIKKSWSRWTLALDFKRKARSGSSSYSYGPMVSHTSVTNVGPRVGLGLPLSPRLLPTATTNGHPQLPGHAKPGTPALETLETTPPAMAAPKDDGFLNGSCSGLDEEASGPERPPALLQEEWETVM
As to the kind of experiment: NanoBRET equilibrium competition binding with tracer PTH. The following applies: ABL up to 1 μM. (In general: BRET reads energy transfer from a luciferase to a nearby fluorophore.)

The target in test [2] is T1, nLuc-PTHR1. The class given is binding. The settings on record: HEK293.
The next test concerns the target T2, WT-PTHR1 (Homo sapiens, UniProt Q03431).
T2 sequence (Q03431 27-593): T1 sequence (Q03431 27-593)
Nature of the test: GloSensor cAMP assay in GP2.3 cells. The following applies: HEK293, read-out: cAMP formation %Emax. The class given is cell-based. A general note: Changes in cAMP serve as a functional read-out for many G protein-coupled receptors.

For a further test, the target named is T3, nLuc-ΔECD-PTHR1 (Homo sapiens, UniProt Q03431).
T3 sequence (Q03431 182-593 limits assumed): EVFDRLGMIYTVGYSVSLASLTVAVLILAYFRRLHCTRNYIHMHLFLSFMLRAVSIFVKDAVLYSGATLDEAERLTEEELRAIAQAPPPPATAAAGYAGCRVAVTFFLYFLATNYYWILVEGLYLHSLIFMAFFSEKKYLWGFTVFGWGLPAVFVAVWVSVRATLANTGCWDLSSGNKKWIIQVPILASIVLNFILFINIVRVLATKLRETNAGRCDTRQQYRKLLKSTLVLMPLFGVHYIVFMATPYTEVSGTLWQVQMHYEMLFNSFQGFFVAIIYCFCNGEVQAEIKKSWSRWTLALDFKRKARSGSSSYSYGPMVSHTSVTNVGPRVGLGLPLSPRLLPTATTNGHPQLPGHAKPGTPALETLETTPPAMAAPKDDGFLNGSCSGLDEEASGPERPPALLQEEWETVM
Nature of the test: NanoBRET direct binding on truncated receptor lacking the extracellular domain.

Non-standard residues stand in square brackets, D forms with d. Residues, ends and D or L forms follow the SMILES beside them. *: point of attachment. X1 = CN(C)c1ccc2c(-c3cc(C(=O)*)ccc3C(=O)[O-])c3ccc(=[N+](C)C)cc-3oc2c1; hArg = N=C(N)NCCCC[C@H](N)C(=O)O; Aib = CC(C)(N)C(=O)O

On to “ABL: synthetic analogue of PTHrP(1-34) used clinically for osteoporosis”, for which, in the test with nLuc-PTHR1 [1], the “displacement of PTH(1-34)K35^TMR tracer (in words)” value is “failed to fully inhibit”.
As for `CC[C@H](C)[C@H](NC(=O)[C@H](CCCCNC(=O)c1ccc(C(=O)[O-])c(-c2c3ccc(=[N+](C)C)cc-3oc3cc(N(C)C)ccc23)c1)NC(=O)[C@H](C)NC(=O)[C@@H](NC(=O)[C@H](Cc1c[nH]cn1)NC(=O)[C@@H](NC(=O)[C@H](CCC(=O)O)NC(=O)[C@H](C)NC(=O)[C@@H](NC(=O)[C@H](CC(C)C)NC(=O)[C@H](Cc1c[nH]cn1)NC(=O)[C@H](Cc1c[nH]cn1)NC(=O)[C@H](CC(C)C)NC(=O)[C@H](Cc1ccccc1)NC(=O)[C@H](Cc1ccccc1)NC(=O)[C@H](CCCNC(=N)N)NC(=O)[C@H](CCCNC(=N)N)NC(=O)[C@H](CCCNC(=N)N)NC(=O)[C@H](CCSC)NC(=O)[C@H](CO)NC(=O)[C@H](CC(N)=O)NC(=O)[C@H](CC(C)C)NC(=O)[C@H](Cc1c[nH]cn1)NC(=O)[C@H](CCCCN)NC(=O)CNC(=O)[C@H](CC(C)C)NC(=O)[C@H](CC(N)=O)NC(=O)[C@H](Cc1c[nH]cn1)NC(=O)[C@H](CCSC)NC(=O)[C@H](CC(C)C)NC(=O)[C@H](CCC(N)=O)NC(=O)[C@@H](NC(=O)[C@H](CCC(=O)O)NC(=O)[C@H](CO)NC(=O)[C@@H](NC(=O)[C@@H](N)CO)C(C)C)[C@@H](C)CC)[C@@H](C)CC)[C@@H](C)CC)[C@@H](C)O)C(N)=O` [PTH[1-18] PTHrP[19-36]] (H-SVSEIQLMHNLGKHLNSMRRRFFLHHLIAEIHTAK(X1)I-NH2; N-terminus assumed), at nLuc-PTHR1 [2], the off-rate (koff) was found to be 0.0079 ± 0.001 s⁻¹ and the kon was 320000 ± 70000 M⁻¹ s⁻¹. For the same molecule, at WT-PTHR1, the maximal effect (Emax) stood at 106 ± 1%.
At nLuc-PTHR1 [2], `CC[C@H](C)[C@H](NC(=O)[C@H](CCCCNC(=O)c1ccc(C(=O)[O-])c(-c2c3ccc(=[N+](C)C)cc-3oc3cc(N(C)C)ccc23)c1)NC(=O)[C@H](C)NC(=O)[C@@H](NC(=O)[C@H](Cc1c[nH]cn1)NC(=O)[C@@H](NC(=O)[C@H](CCC(=O)O)NC(=O)[C@H](C)NC(=O)[C@@H](NC(=O)[C@H](CC(C)C)NC(=O)[C@H](Cc1c[nH]cn1)NC(=O)[C@H](Cc1c[nH]cn1)NC(=O)[C@H](CC(C)C)NC(=O)[C@H](Cc1ccccc1)NC(=O)[C@H](Cc1ccccc1)NC(=O)[C@H](CCCNC(=N)N)NC(=O)[C@H](CCCNC(=N)N)NC(=O)[C@H](CCCNC(=N)N)NC(=O)[C@H](CC(C)C)NC(=O)[C@H](CC(=O)O)NC(=O)[C@H](CCC(N)=O)NC(=O)[C@@H](NC(=O)[C@H](CO)NC(=O)[C@H](CCCCN)NC(=O)CNC(=O)[C@H](CC(C)C)NC(=O)[C@H](CC(N)=O)NC(=O)[C@H](Cc1c[nH]cn1)NC(=O)[C@H](CCSC)NC(=O)[C@H](CC(C)C)NC(=O)[C@H](CCC(N)=O)NC(=O)[C@@H](NC(=O)[C@H](CCC(=O)O)NC(=O)[C@H](CO)NC(=O)[C@@H](NC(=O)[C@@H](N)CO)C(C)C)[C@@H](C)CC)[C@@H](C)CC)[C@@H](C)CC)[C@@H](C)CC)[C@@H](C)O)C(N)=O` [PTH[1-12] PTHrP[13-36]] (H-SVSEIQLMHNLGKSIQDLRRRFFLHHLIAEIHTAK(X1)I-NH2; N-terminus assumed) had an off-rate (koff) of 0.0035 ± 0.001 s⁻¹ and a kon of 800000 ± 50000 M⁻¹ s⁻¹. The Emax on WT-PTHR1 worked out at 107 ± 5%.
Regarding `CC[C@H](C)[C@H](NC(=O)[C@H](CCC(=O)O)NC(=O)C(C)(C)NC(=O)[C@@H](NC(=O)C(C)(C)N)C(C)C)C(=O)N[C@@H](CCC(N)=O)C(=O)N[C@@H](CC(C)C)C(=O)N[C@@H](CCSC)C(=O)N[C@@H](Cc1c[nH]cn1)C(=O)N[C@@H](CCC(N)=O)C(=O)N[C@@H](CCCCNC(=N)N)C(=O)N[C@@H](C)C(=O)N[C@@H](CCCCN)C(=O)N[C@@H](Cc1c[nH]c2ccccc12)C(=O)N[C@@H](CCCCNC(=O)c1ccc(C(=O)[O-])c(-c2c3ccc(=[N+](C)C)cc-3oc3cc(N(C)C)ccc23)c1)C(N)=O` [M-PTH(1-14)-15K^TMR] (H-[Aib]V[Aib]EIQLMHQ[hArg]AKWK(X1)-NH2; N-terminus assumed), the koff on nLuc-PTHR1 [2] turned out to be 0.024 ± 0.001 s⁻¹; on nLuc-ΔECD-PTHR1, 0.018 ± 0.003 s⁻¹. Moreover, the figures for the association rate constant (kon) on nLuc-PTHR1 [2] and at nLuc-ΔECD-PTHR1 were 77000 ± 20000 M⁻¹ s⁻¹ and 180000 ± 50000 M⁻¹ s⁻¹, respectively.
For `CC[C@H](C)[C@H](NC(=O)[C@H](CC(C)C)NC(=O)[C@H](CCCCN)NC(=O)[C@H](Cc1c[nH]cn1)NC(=O)[C@H](CC(C)C)NC(=O)[C@H](Cc1ccccc1)NC(=O)[C@H](C)NC(=O)[C@H](CCCNC(=N)N)NC(=O)[C@H](CCCNC(=N)N)NC(=O)[C@H](CCCNC(=N)N)NC(=O)[C@H](C)NC(=O)[C@H](CC(=O)O)NC(=O)[C@H](CCC(N)=O)NC(=O)[C@@H](NC(=O)[C@H](Cc1c[nH]c2ccccc12)NC(=O)[C@H](CCCCN)NC(=O)[C@H](C)NC(=O)[C@H](CCCNC(=N)N)NC(=O)[C@H](CCC(N)=O)NC(=O)[C@H](Cc1c[nH]cn1)NC(=O)[C@H](CCSC)NC(=O)[C@H](CC(C)C)NC(=O)[C@H](CCC(N)=O)NC(=O)[C@@H](NC(=O)[C@H](CCC(=O)O)NC(=O)[C@H](C)NC(=O)[C@@H](NC(=O)[C@H](C)N)C(C)C)[C@@H](C)CC)[C@@H](C)CC)C(=O)N[C@@H](C)C(=O)N[C@@H](CCC(=O)O)C(=O)N[C@H](C(=O)N[C@@H](Cc1c[nH]cn1)C(=O)N[C@H](C(=O)N[C@@H](C)C(=O)N[C@@H](CCCCNC(=O)c1ccc(C(=O)[O-])c(-c2c3ccc(=[N+](C)C)cc-3oc3cc(N(C)C)ccc23)c1)C(N)=O)[C@@H](C)O)[C@@H](C)CC` [LA-PTH(1-34)-35K^TMR] (H-AVAEIQLMHQRAKWIQDARRRAFLHKLIAEIHTAK(X1)-NH2; N-terminus assumed), in that order: 0.00056 ± 0.0002 s⁻¹, 0.0097 ± 0.003 s⁻¹, 230000 ± 40000 M⁻¹ s⁻¹ and 130000 ± 10000 M⁻¹ s⁻¹.
